Results from patent US11253525B2, “Inhibitors of indoleamine 2,3-dioxygenase and methods of their use” (BRISTOL-MYERS SQUIBB COMPANY, priority 2018, dated 2022).
Like-named read-outs stand apart in the source and are kept apart here.

Biological target: T1, indoleamine 2,3-dioxygenase (IDO) (Homo sapiens, UniProt P14902)
T1 construct: replaced with media containing IFNγ (#285-IF/CF, R&D Systems) at a final concentration of 25 ng/mL; endogenous in cells; host or cells: HeLa (ATCC CCL-2), IFN-gamma stimulated
T1 sequence (P14902 whole entry): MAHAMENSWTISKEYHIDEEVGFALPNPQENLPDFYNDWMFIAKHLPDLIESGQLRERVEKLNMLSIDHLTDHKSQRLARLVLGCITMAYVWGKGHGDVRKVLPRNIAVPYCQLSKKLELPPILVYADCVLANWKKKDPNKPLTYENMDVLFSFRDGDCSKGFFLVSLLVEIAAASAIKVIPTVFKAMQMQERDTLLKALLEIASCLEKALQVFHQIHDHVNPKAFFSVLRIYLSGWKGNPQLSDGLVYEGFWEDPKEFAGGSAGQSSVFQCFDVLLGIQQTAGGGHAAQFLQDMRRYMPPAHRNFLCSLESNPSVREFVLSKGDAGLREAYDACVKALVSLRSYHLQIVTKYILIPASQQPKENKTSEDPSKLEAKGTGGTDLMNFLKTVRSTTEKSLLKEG
Test: HeLa cell-based indoleamine 2,3-dioxygenase (IDO) assay, kynurenine production
Conditions: HeLa cells, IFNγ 25 ng/mL, 48 hour incubation
Protocol: Assessment of Inhibitor Activity in HeLa Cell-Based Indoleamine 23-Dioxygenase (IDO) Assay
Cells were maintained in a humidified incubator at 37° C. in 5% CO2.
IDO activity was assessed as a function of kynurenine production as follows: HeLa cells were seeded in a 96-well culture plate at a density of 5,000 cells/well and allowed to equilibrate overnight. […] A serial dilution of each test compound was added to the cells in a total volume of 200 μL of culture medium. After a further 48 hour incubation, 170 μL of supernatant was transferred from each well to a fresh 96-well plate. 12.1 μL of 6.1N trichloroacetic acid (#T0699, Sigma-Aldrich) was added to each well and mixed, followed by incubation at 65° C. for 20 minutes to hydrolyze N-formylkynurenine, the product of indoleamine 2,3-dioxygenase, to kynurenine. The reaction mixture was then centrifuged for 10 mins at 500×g to sediment the precipitate. 100 μL of the supernatant was transferred from each well to a fresh 96-well plate. […] Kynurenine concentrations were determined by measuring absorbance at 480 nm and calibrating against an L-kynurenine (#K8625, Sigma-Aldrich) standard curve using a SPECTRAMAX® M2e microplate reader (Molecular Devices). The percentage activity at each inhibitor concentration was determined and IC50 values assessed using nonlinear regression.

[1] = read-out: IDO Hela IC50 class (A < 50, B < 250, C < 2000)

CCO[C@@H](c1ccc([C@H](CC)CC(=O)O)cc1Nc1cnc(OC)cn1)C(F)(F)F (relative stereo) [Example 36, (R)-3-(4-((S)-1-ethoxy-2,2,2-trifluoroethyl)-3-((5-methoxypyrazin-2-yl)amino)phenyl)pentanoic acid]
IC50 (read-out: IDO Hela IC50): 30 nM

CCO[C@@H](c1ccc([C@@H](COC)CC(=O)O)cc1Nc1ccc(C#N)cc1)C(F)(F)F (single isomer, unassigned) [Example 80]
IC50 [1]: < 50 nM

CC[C@H](CC(=O)O)c1ccc([C@@H](CC)N2CCOCC2)c(Nc2ccc(C#N)cc2)c1 (relative stereo) [Example 122, (R)-3-(3-((4-cyanophenyl)amino)-4-((R)-1-morpholinopropyl)phenyl)pentanoic acid]
IC50 [1]: < 50 nM

CCO[C@H](c1ccc([C@@H](CC)CC(=O)O)cc1Nc1ccc(C#N)cc1)C(F)(F)F (single isomer, unassigned) [Example 26]
IC50 [1]: < 50 nM

CCO[C@H](c1ccc([C@@H](COC)CC(=O)O)cc1Nc1ncc(F)cn1)C(F)(F)F (relative stereo) [Example 64, (S)-3-(4-((R)-1-ethoxy-2,2,2-trifluoroethyl)-3-((5-fluoropyrimidin-2-yl)amino)phenyl)-4-methoxybutanoic acid]
IC50 [1]: 250 to 2000 nM

CC[C@H](CC(=O)O)c1ccc([C@@H](OC)C(F)(F)F)c(Nc2ccc(Cl)cc2)c1 (single isomer, unassigned) [Example 83-2]
IC50 [1]: < 50 nM

CC[C@@H](CC(=O)O)c1ccc([C@@H](CC)N2CCOCC2)c(Nc2ccc(Cl)cc2)c1 (single isomer, unassigned) [Example 132]
IC50 (read-out: IDO Hela IC50): 70 nM

CCOc1ncc(Nc2cc([C@@H](CC)CC(=O)O)ccc2[C@H](CC)N2CCOCC2)cn1 (single isomer, unassigned) [Example 118-2]
IC50 (read-out: IDO Hela IC50): 430 nM

CCOC(c1ccc(C(COC)CC(=O)O)cc1NC(=O)Nc1ccc(C)cc1)C(F)(F)F (single isomer, unassigned) [Example 52]
IC50 (read-out: IDO Hela IC50): 230 nM

CCO[C@@H](c1ccc([C@@H](COC)CC(=O)O)cc1NC(=O)Nc1ccc(Cl)cc1F)C(F)(F)F (single isomer, unassigned) [Example 75]
IC50 (read-out: IDO Hela IC50): 40 nM

CCO[C@@H](c1ccc([C@@H](COC)CC(=O)O)cc1Nc1cnc(C)nc1)C(F)(F)F [Example 81, (S)-3-(4-((S)-1-ethoxy-2,2,2-trifluoroethyl)-3-((2-methylpyrimidin-5-yl)amino)phenyl)-4-methoxybutanoic Acid]
IC50 [1]: 250 to 2000 nM

CC[C@@H](CC(=O)O)c1ccc([C@@H](CC)N2CCOCC2)c(Nc2ccc(COC)nc2)c1 (relative stereo) [Example 131, (S)-3-(3-((6-(methoxymethyl)pyridin-3-yl)amino)-4-((R)-1-morpholinopropyl)phenyl)pentanoic acid]
IC50 [1]: 250 to 2000 nM

CCOc1ncc(Nc2cc([C@@H](CC)CC(=O)O)ccc2[C@H](OCC)C(F)(F)F)cn1 (single isomer, unassigned) [Example 45]
IC50 (read-out: IDO Hela IC50): 30 nM

CC[C@H](CC(=O)O)c1ccc([C@@H](OC)C(F)(F)F)c(Nc2cnc(C)nc2)c1 (relative stereo) [Example 90, (R)-3-(3-((2-methylpyrimidin-5-yl)amino)-4-((R)-2,2,2-trifluoro-1-methoxyethyl)phenyl)pentanoic acid]
IC50 (read-out: IDO Hela IC50): 150 nM

CC[C@@H](CC(=O)O)c1ccc([C@H](OC)C(F)(F)F)c(Nc2cnc(C)nc2)c1 (single isomer, unassigned) [Example 98]
IC50 (read-out: IDO Hela IC50): 150 nM

CCO[C@H](c1ccc([C@@H](COC)CC(=O)O)cc1Nc1cnc(OC)nc1)C(F)(F)F (single isomer, unassigned) [Example 62]
IC50 (read-out: IDO Hela IC50): 40 nM

CCO[C@@H](c1ccc([C@@H](COC)CC(=O)O)cc1Nc1cnc(OC)nc1)C(F)(F)F (single isomer, unassigned) [Example 76]
IC50 (read-out: IDO Hela IC50): 700 nM

CCc1ncc(Nc2cc([C@@H](COC)CC(=O)O)ccc2[C@@H](CC)N2CCOCC2)cn1 (relative stereo) [Example 107, (S)-3-(3-((2-ethylpyrimidin-5-yl)amino)-4-((R)-1-morpholinopropyl)phenyl)-4-methoxybutanoic acid]
IC50 [1]: 250 to 2000 nM

CCOc1ncc(Nc2cc([C@@H](COC)CC(=O)O)ccc2[C@H](CC)N2CCOCC2)cn1 (single isomer, unassigned) [Example 103]
IC50 (read-out: IDO Hela IC50): 200 nM

CCc1ncc(Nc2cc([C@@H](COC)CC(=O)O)ccc2[C@H](CC)N2CCOCC2)cn1 (relative stereo) [Example 102, (S)-3-(3-((2-ethylpyrimidin-5-yl)amino)-4-((S)-1-morpholinopropyl)phenyl)-4-methoxybutanoic acid]
IC50 (read-out: IDO Hela IC50): 890 nM

CCOc1ncc(Nc2cc([C@H](CC)CC(=O)O)ccc2[C@@H](CC)C2CCOCC2)cn1 (single isomer, unassigned) [Example 125-1]
IC50 (read-out: IDO Hela IC50): 40 nM

CCO[C@H](c1ccc([C@H](COC)CC(=O)O)cc1Nc1ccc(C#N)cc1)C(F)(F)F (relative stereo) [Example 57, (R)-3-(3-((4-cyanophenyl)amino)-4-((R)-1-ethoxy-2,2,2-trifluoroethyl)phenyl)-4-methoxybutanoic acid]
IC50 (read-out: IDO Hela IC50): 10 nM

CC[C@H](c1ccc([C@@H](COC)CC(=O)O)cc1Nc1ccc(COC)nc1)N1CCOCC1 (relative stereo) [Example 109, (S)-4-methoxy-3-(3-((6-(methoxymethyl)pyridin-3-yl)amino)-4-((R)-1-morpholinopropyl)phenyl)butanoic acid]
IC50 [1]: 250 to 2000 nM

CCOc1ncc(Nc2cc([C@@H](CC)CC(=O)O)ccc2[C@@H](OCC)C(F)(F)F)cn1 (relative stereo) [Example 24, (S)-3-(4-((R)-1-ethoxy-2,2,2-trifluoroethyl)-3-((2-ethoxypyrimidin-5-yl)amino)phenyl)pentanoic acid]
IC50 (read-out: IDO Hela IC50): 10 nM

CCc1ncc(Nc2cc([C@H](CC)CC(=O)O)ccc2[C@@H](CC)C2CCOCC2)cn1 (single isomer, unassigned) [Example 126-1]
IC50 [1]: < 50 nM

CC[C@H](CC(=O)O)c1ccc([C@@H](OC)C(F)(F)F)c(Nc2cnc(C(F)(F)F)nc2)c1 (single isomer, unassigned) [Example 92]
IC50 (read-out: IDO Hela IC50): 10 nM

CCO[C@H](c1ccc([C@@H](CC)CC(=O)O)cc1Nc1cnc(CC)nc1)C(F)(F)F (single isomer, unassigned) [Example 29]
IC50 (read-out: IDO Hela IC50): 20 nM

CCO[C@H](c1ccc([C@H](CC)CC(=O)O)cc1Nc1ccc(C#N)cc1)C(F)(F)F (single isomer, unassigned) [Example 15]
IC50 [1]: < 50 nM

CCO[C@H](c1ccc([C@@H](CC)CC(=O)O)cc1NC(=O)Nc1ccc(C)cc1)C(F)(F)F (single isomer, unassigned) [Example 19]
IC50 (read-out: IDO Hela IC50): 580 nM

CCO[C@@H](c1ccc([C@@H](COC)CC(=O)O)cc1Nc1ccc(C#N)c(F)c1)C(F)(F)F (single isomer, unassigned) [Example 77]
IC50 (read-out: IDO Hela IC50): 30 nM

CCOc1ncc(Nc2cc([C@@H](CC)CC(=O)O)ccc2[C@H](OC)C(F)(F)F)cn1 (single isomer, unassigned) [Example 99]
IC50 (read-out: IDO Hela IC50): 30 nM

CC[C@H](CC(=O)O)c1ccc([C@@H](CC)N2CCOCC2)c(Nc2cnc(C)nc2)c1 (relative stereo) [Example 120, (R)-3-(3-((2-methylpyrimidin-5-yl)amino)-4-((R)-1-morpholinopropyl)phenyl)pentanoic acid]
IC50 (read-out: IDO Hela IC50): 80 nM

CCO[C@H](c1ccc([C@@H](CC)CC(=O)O)cc1Nc1cnc(C)nc1)C(F)(F)F (single isomer, unassigned) [Example 28]
IC50 [1]: < 50 nM

CCO[C@H](c1ccc([C@H](CC)CC(=O)O)cc1Nc1cnc(C)nc1)C(F)(F)F (relative stereo) [Example 17, (R)-3-(4-((R)-1-ethoxy-2,2,2-trifluoroethyl)-3-((2-methylpyrimidin-5-yl)amino)phenyl)pentanoic acid]
IC50 (read-out: IDO Hela IC50): 130 nM

CC[C@@H](c1ccc([C@@H](COC)CC(=O)O)cc1Nc1ccc(C#N)cc1)N1CCOCC1 (single isomer, unassigned) [Example 101-1]
IC50 [1]: < 50 nM

CC[C@@H](CC(=O)O)c1ccc([C@H](OC)C(F)(F)F)c(Nc2ccc(C#N)cc2)c1 (single isomer, unassigned) [Example 97]
IC50 [1]: < 50 nM

CC[C@@H](CC(=O)O)c1ccc([C@@H](OC)C(F)(F)F)c(Nc2cnc(C)nc2)c1 (single isomer, unassigned) [Example 86]
IC50 (read-out: IDO Hela IC50): 450 nM

CCOc1ncc(Nc2cc([C@@H](CC)CC(=O)O)ccc2[C@H](CC)N2CCOCC2)cn1 (single isomer, unassigned) [Example 118-4]
IC50 (read-out: IDO Hela IC50): 10 nM

CCO[C@@H](c1ccc([C@H](COC)CC(=O)O)cc1Nc1ccc(Cl)cc1)C(F)(F)F (single isomer, unassigned) [Example 72]
IC50 (read-out: IDO Hela IC50): 10 nM

CC[C@H](c1ccc([C@@H](COC)CC(=O)O)cc1Nc1ccc(Cl)cc1)N1CCOCC1 (relative stereo) [Example 110, (S)-3-(3-((4-chlorophenyl)amino)-4-((R)-1-morpholinopropyl)phenyl)-4-methoxybutanoic acid]
IC50 (read-out: IDO Hela IC50): 380 nM | IC50 [1]: 50 to 250 nM
